Experimental data reported in patent US6365617B1, “Indole and indazole urea-peptoids as thrombin receptor antagonists” (Ortho-McNeil Pharmaceutical, Inc., priority 1999, dated 2002).
Read-outs that look alike come from different tables or passages of the source.

Columns and labels:
[1] = test system: gel-filtered platelets (thrombin-induced aggregation); assay: In vitro inhibition of thrombin-induced gel-filtered platelet aggregation assay; format: cell-based; settings: platelet aggregation stimulated by thrombin, gel-filtered human platelets, read-out: GFP Aggr. IC50
Experimental: In Vitro Inhibition Of Thrombin-induced Gel-filtered Platelet Aggregation Assay
The percentage of platelet aggregation is calculated as an increase in light transmission of compound-treated platelet concentrate vs. control-treated platelet concentrate. Human blood is obtained from drug free, normal donors in tubes containing 0.13M sodium citrate. Platelet rich plasma (PRP) is collected by centrifugation of whole blood at 200×g for 10 min at 25° C. The PRP (5 mL) is gel filtered through Sepharose 2B (bed volume 50 mL), and the platelet count is adjusted to 2×10^7 platelets per sample. The following constituents are added to a siliconized cuvette: concentrated platelet filtrate and Tyrode's buffer (0.14M NaCl, 0.0027M KCl, 0.012M NaHCO3, 0.76 mM Na2HPO4, 0.0055M glucose, 2 mg/mL BSA and 5.0 mM HEPES @ pH 7.4) in an amount equal to 350 μL, 50 μL of 20 mM calcium and 50 μL of the test compound. Aggregation is monitored in a BIODATA aggregometer for the 3 min following the addition of agonist (thrombin 50 μL of 1 unit/mL).

[2] = target: T1, thrombin receptor (PAR-1) (Homo sapiens, UniProt P25116); assay: In vitro thrombin receptor binding assay (CHRF membranes, tritiated 721-40)
T1 construct: CHRF membranes (Jones, Biochim. Biophys. Acta 1992, 1136, 272) are thawed from −70° C; endogenous in cells; host or cells: CHRF cell membranes
T1 sequence (P25116 22-425): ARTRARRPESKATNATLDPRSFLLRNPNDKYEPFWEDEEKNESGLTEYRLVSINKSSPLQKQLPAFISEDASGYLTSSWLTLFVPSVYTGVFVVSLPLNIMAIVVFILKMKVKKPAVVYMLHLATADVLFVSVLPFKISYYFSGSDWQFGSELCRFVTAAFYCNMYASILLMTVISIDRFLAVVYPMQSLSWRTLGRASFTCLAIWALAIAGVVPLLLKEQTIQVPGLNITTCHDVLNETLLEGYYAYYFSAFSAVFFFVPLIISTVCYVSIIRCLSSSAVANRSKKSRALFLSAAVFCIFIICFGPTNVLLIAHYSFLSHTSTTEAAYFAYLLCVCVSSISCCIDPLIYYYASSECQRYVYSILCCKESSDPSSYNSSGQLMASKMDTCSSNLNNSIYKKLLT
Experimental: In Vitro Thrombin Receptor Binding Assay
CHRF membranes (Jones, Biochim. Biophys. Acta 1992, 1136, 272) are thawed from −70° C., centrifuged at maximum speed for 5 min, washed twice with binding buffer (50 mM HEPES containing 5 mM MgCl2 and 0.1% BSA), and re-suspended in binding buffer ([…]). 100 μL of membranes are added to the 24-Wallac plates and delivered to the Tomtech apparatus. In a typical experiment, 6 μL of samples (from a 125 μg/mL intermediary plate, 20% DMSO) and 44 μL buffer are delivered to the plates (final conc. of compounds is 3.7 μg/mL, 0.6% DMSO). Similarly, 6 μL 20% DMSO and 44 μL buffer are delivered to both column 1 (NSB) and column 12 (TB). 10 μL Ser-pFPhe-Har-Leu-Har-Lys-Tyr-NH2 (721-40; 500 μM in deionized water) is added to column 1. 50 μL tritiated 721-40 (specific activity 46 Ci/mmol) is added to all the wells. The plates are mixed well for 20 seconds, incubated for 30 min, and then harvested with 10 mM HEPES/138 mM NaCl using the Skatron harvester. The filters (GF/C Brandel FPXLR 296) are presoaked 3 h in 0.5% polyethylenimine in HEPES/0.1M N-acetylglucosamine) are set in saran wrap and dried for 3 min in the microwave, and placed in sample bags (Wallac 1450-432). 4.5 mL scintillation fluid (Wallac, Betaplate Scint 1205-440) is added. The bags are sealed, placed in filter cassettes (Wallac 1450-104), and analyzed on the microbeta counter.

[3] = Table 1, read-out: Recptr Bdg. IC50
[4] = Table 2, read-out: Recptr Bdg. IC50

SMILES | IC50 ([1]; Table 1) | IC50 [2, 3] | IC50 ([1]; Table 2) | IC50 [2, 4]
NCCN(CC(=O)NCc1ccccc1)C(=O)[C@H](Cc1ccc(F)c(F)c1)NC(=O)Nc1ccc2c(CN3CCCC3)nn(Cc3c(Cl)cccc3Cl)c2c1 [Compound 1] | 1300 nM | 500 nM |  | 
NCCN(CC(=O)NCc1ccccc1)C(=O)[C@H](Cc1ccc(F)c(F)c1)NC(=O)Nc1ccc2c(CN3CCCC3)cn(Cc3c(Cl)cccc3Cl)c2c1 [Compound 2] | 1700 nM | 300 nM |  | 
NCCCCN(CC(=O)NCc1ccccc1)C(=O)[C@H](Cc1ccc(F)c(F)c1)NC(=O)Nc1ccc2c(CN3CCCC3)nn(Cc3c(Cl)cccc3Cl)c2c1 [Compound 3] | 260 nM | 300 nM |  | 
NCCCCN(CC(=O)NCc1ccccc1)C(=O)[C@H](Cc1ccc(F)c(F)c1)NC(=O)Nc1ccc2c(CN3CCCC3)cn(Cc3c(Cl)cccc3Cl)c2c1 [Compound 4] | 260 nM | 220 nM |  | 
O=C(CN(Cc1ccccc1)C(=O)[C@H](Cc1ccc(F)c(F)c1)NC(=O)Nc1ccc2c(CN3CCCC3)cn(Cc3c(Cl)cccc3Cl)c2c1)NCc1ccccc1 [Compound 5] | 22000 nM | 380 nM |  | 
NCCCN(Cc1cccs1)C(=O)[C@H](Cc1ccc(F)c(F)c1)NC(=O)Nc1ccc2c(CN3CCCC3)cn(Cc3c(Cl)cccc3Cl)c2c1 [Compound 6, Benzene Propanamide, N-(3-aminopropyl)-N-(2-thiophenemethyl)-α-[[[[[1-(2,6-dichlorophenyl)methyl]-3-(1-pyrrolidinylmethyl)-1H-indol-6-yl]amino]carbonyl]amino]-3,4-difluoro-, (αS)-] | 600 nM | 10300 nM |  | 
N=C(N)NCCC[C@H](NC(=O)CN(CCCCCN)C(=O)Nc1ccc2c(CN3CCCC3)cn(Cc3c(Cl)cccc3Cl)c2c1)C(=O)NCc1ccccc1 [Compound 13] |  |  | 1000 nM | > 100000 nM
N=C(N)NCCC[C@H](NC(=O)CN(Cc1ccc(Cl)cc1)C(=O)Nc1ccc2c(CN3CCCC3)cn(Cc3c(Cl)cccc3Cl)c2c1)C(=O)NCc1ccccc1 [Compound 14] |  |  | 6300 nM | 6900 nM
N=C(N)NCCC[C@H](NC(=O)CN(Cc1ccc(F)cc1)C(=O)Nc1ccc2c(CN3CCCC3)cn(Cc3c(Cl)cccc3Cl)c2c1)C(=O)NCc1ccccc1 [Compound 15, N-4-Fluorophenylmethyl-N-{[1-(2,6-dichlorophenyl)methyl-3-(1-pyrrolidinylmethyl)-1H-indol-6-yl]aminocarbonyl}-clycinyl-L-arginin-N-benzyl-amide] |  |  | 2100 nM | 8100 nM
